Measured values: patent US20190345505A1, “METHODS FOR REGULATING EXTRACTABLE PROANTHOCYANIDINS (PAS) IN PLANTS BY AFFECTING LEUCOANTHOCYANIDIN REDUCTASE (LAR)” (University of North Texas, priority 2016, published 2019)

What was measured:
[1] = target: T1, LAR from Desmodium uncinatum (Desmodium uncinatum, UniProt Q84V83); conditions: Tanner et al. 2003; read-out: reported Km of LAR towards leucocyanidin; cited from earlier work
T1 sequence (Q84V83 1-382): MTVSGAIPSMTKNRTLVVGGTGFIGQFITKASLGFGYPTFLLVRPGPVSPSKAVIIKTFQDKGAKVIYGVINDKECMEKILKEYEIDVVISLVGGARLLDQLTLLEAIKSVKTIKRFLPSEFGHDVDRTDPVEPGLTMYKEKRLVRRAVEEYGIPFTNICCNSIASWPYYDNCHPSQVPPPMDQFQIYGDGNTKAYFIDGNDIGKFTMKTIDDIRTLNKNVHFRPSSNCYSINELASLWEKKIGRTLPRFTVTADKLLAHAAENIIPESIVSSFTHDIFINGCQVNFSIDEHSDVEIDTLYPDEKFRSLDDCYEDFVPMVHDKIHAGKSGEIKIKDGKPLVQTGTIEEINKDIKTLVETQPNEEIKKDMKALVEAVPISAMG

mutated LAR (LAR/K143G) = experiment: Conversion of 4β-(S-cysteinyl)-epicatechin to epicatechin by mutated LAR (negative control); format: biochemical, Medicago truncatula; conditions: 40 μM substrate, 50 μM NADPH, 5 μg protein, 1 h, room temperature
Description: The full length LAR cDNA was cloned into pMal-c5x vector (New England Biolab) at the XmnI and BamHI sites. Mutations, which convert the lysine 143 codon to a glycine codon, were introduced into LAR cDNA by over-lapping PCR. The expression constructs were transformed into E. coli strain Rosetta™ 2(DE3)pLysS (EMD Millipore) competent cells. Transformed bacteria were grown in LB medium supplemented with 0.2% glucose to OD 600 of 0.5, and IPTG was added at 0.3 mM to induce protein expression. Bacteria were harvested after 4 h induction. LAR proteins were purified with amylose resin (NEB, E8021) following the manufacturer's protocol. Briefly, bacteria were lysed by sonication at 4° C. in extraction buffer (20 mM Tris pH 7.0, 200 mM NaCl, 1 mM DTT, 1 mM PMSF). […]
The above analyses indicate that the 21 minute fraction above contains cysteine and glucuronic acid conjugates of epicatechin, as well as a glucoside conjugate of epicatechin cysteine. Of these compounds, epicatechin cysteine was determined to be the best candidate for being a substrate for LAR. […] The ethyl acetate extract was dried under vacuum, dissolved in 50 μL water and analyzed by UPLC/MS.
Reactions without NADPH or LAR, with NADP^+, and with mutated LAR (LAR/K143G) were run in parallel as negative controls. Reactions were analyzed by UPLC/MS in negative mode. […] Epicatechin-cysteine content was quantified by EIC. […]

DMACA reactivity = format: physicochemical; conditions: Five μL of 1 mM compound added to 200 mL 0.2% DMACA stain solution
Description: Seeds of the lar mutant accumulated more than twice the level of 4β-(S-cysteinyl)-epicatechin than wild-type plants (FIGS. 14B and 14C), whereas none was detected in the anr mutant, and MYB5 over-expressing hairy roots accumulated more than three times the level of epicatechin-cysteine found in MYB14 over-expressing hairy roots. […] DMACA reactivity of epicatechin-cysteine was also measured. Five μL of 1 mM epicatechin or epicatechin-cysteine were added to 200 mL 0.2% DMACA stain solution. OD values of absorbance at 640 nm were measured as: Epicatechin=OD 0.71, Epicatechin-cysteine=OD 0.34, and Blank=OD 0.05. Epicatechin-cysteine reacted with DMACA reagent to produce a less intense blue color than epicatechin, consistent with the weak DMACA staining of lar mutant seeds.

Structure (SMILES)	Km [1] [µM]	activity of mutated LAR on substrate (epicatechin formation, UPLC/MS) (mutated LAR (LAR/K143G))	OD values of absorbance at 640 nm (DMACA reactivity) (DMACA reactivity) [OD]
Oc1cc(O)c2c(c1)OC(c1ccc(O)c(O)c1)C(O)C2O (stereo not drawn) [leucocyanidin]	6		
N[C@@H](CS[C@H]1c2c(O)cc(O)cc2O[C@H](c2ccc(O)c(O)c2)[C@@H]1O)C(=O)O [4β-(S-cysteinyl)-epicatechin]		no activity	0.34
